Tests used:
[1] = test system: BL-2 (Burkitt's lymphoma) cells; test: Trypan blue exclusion cell viability assay; assay type: cell-based, human
Experimental: (§1) Cell viability assay. B and T cell viability was measured using the trypan blue exclusion method. Cells were grown in confluency conditions (2×10^6 cells/mL maximum) assuring the minimum basal apoptosis. […] Cell viability was quantified using the TC10™ automated cell counter (Biorad).
(§2) The drugs were dissolved in DMSO to make 100× stock solutions for each concentration tested, so that the final volume of DMSO in each well was 1%.
(§3) Cell viability was then quantified using the TC10™ automated cell counter (Biorad).

[2] = test system: Ramos (Burkitt's lymphoma) cells; test: Trypan blue exclusion cell viability assay; assay type: cell-based, human; conditions: Homo sapiens, 72 h
Experimental: as §1, §2, §3

[3] = test system: IM-9 ("normal" EBV immortalized B cell); test: Trypan blue exclusion cell viability assay; assay type: cell-based; conditions: Homo sapiens, IM-9 cells, 72 h
Experimental: as §1
(§4) […]. The drugs were dissolved in DMSO to make 100× stock solutions for each concentration tested, so that the final volume of DMSO in each well was 1%. The viability of cells treated with these inhibitors was measured with a trypan blue exclusion assay (Hudson, 1976).
as §3

[4] = test system: KMH2 (Hodgkin's lymphoma) cells; test: Trypan blue exclusion cell viability assay; assay type: cell-based; conditions: Homo sapiens, KM-H2, 72 h
Experimental: as §1, §4, §3

[5] = Intrinsic clearance Cli, mouse; assay type: in vitro ADME
[6] = Intrinsic clearance Cli, rat; assay type: in vitro ADME
[7] = Intrinsic clearance Cli, human; assay type: in vitro ADME
CYP450 2C19 = CYP450 2C19 (Homo sapiens, UniProt P33261); test: CYP450 inhibition; assay type: in vitro ADME; conditions: 2C19, at 1 uM
Caco-2 permeability Papp = assay type: in vitro ADME; conditions: human
Fu plasma, human = assay type: in vitro ADME
hERG = hERG (Homo sapiens, UniProt Q12809); test: hERG (patch clamp); assay type: cell-based
[8] = Mouse IV pharmacokinetics; assay type: in vivo; conditions: whole blood, [ ] = range; for Vd: read-out: Vss
[9] = Mouse PO pharmacokinetics 10 mg/kg; conditions: in vivo, PO 10 mg/kg, [ ] = range
Fu Brain = assay type: in vitro ADME
Pgp = molecular target: T1, Pgp (Homo sapiens, UniProt P08183); test: Pgp efflux, Caco-2; assay type: in vitro ADME
T1 construct: endogenous in cells; host or cells: Caco-2

[10] = test system: BL-2 (Burkitt's lymphoma) cells; test: MTS cell viability assay; assay type: cell-based, human
Experimental: (§5) […]. The drugs were dissolved in DMSO to make 100× stock solutions for each concentration tested, so that the final volume of DMSO in each well was 1%. MTS [(3-(4,5-dimethylthiazol-2-yl)-5-(3-carboxymethoxyphenyl)-2-(4-sulfophenyl)-2H-tetrazolium)] assay was used to measure the cytotoxicity of the drug (Cory et al., 1991).
(§6) In FIG. 9, Panel B, DDD86481 was used to treat BL cells and control cell lines [IM9 (“normal” B lymphocyte) and KMH2 (HL cell line) that expresses both NMTs]. […]. The EC50 data are summarized as follows.

[11] = test system: Ramos (Burkitt's lymphoma) cells; test: MTS cell viability assay; assay type: cell-based, human
Experimental: as §5, §6

[12] = test system: IM-9 ("normal" EBV immortalized B cell); test: MTS cell viability assay; assay type: cell-based; conditions: Homo sapiens
Experimental: as §5, §6

[13] = test system: KMH2 (Hodgkin's lymphoma) cells; test: MTS cell viability assay; assay type: cell-based; conditions: Homo sapiens, KM-H2, 72 h
Experimental: as §5, §6

[14] = test system: myristoylation in Ramos cells; test: Inhibition of myristoylation, alkynyl-myristate labeling and click chemistry; assay type: cell-based, human; conditions: 2 h treatment
Experimental: (§7) Cells were labeled with 100 to 25 μM ω-alkynyl myristic acid 30 min prior to harvesting the cells and lysed in 0.1% SDS-RIPA-HEPES buffer. Protein (50-30 μg) from the resulting cell lysates were reacted with 100 μM azido-biotin using click chemistry and processed as described previously (Yap et al., 2010). Briefly, cells were starved of fatty acids by incubating in media (RPMI or DMEM) which were supplemented with 5% dextran-coated charcoal-treated FBS (DCC-FBS) for 1 h prior to labeling. Next, ω-alkynyl-myristic acid was dissolved in DMSO to generate 25 or 100 mM stock solutions. Typically, the cellular uptake of ω-alkynyl myristic acid typically was improved with saponification and conjugation to BSA. Therefore, prior to labeling, ω-alkynyl myristic acid was saponified with 20% molar excess of potassium hydroxide at 65° C. for 15 min. Next, serum-free culture media (pre-warmed) containing 20% fatty acid-free BSA at 37° C. was added to the saponified ω-alkynyl myristic acid and incubated for an additional 15 min at 37° C.
Subsequently, cells deprived of fatty acids were washed once with warm PBS and incubated in fresh RPMI or DMEM without any supplements. […]
(§8) In FIG. 9 E, the minimal dose of DDD86481 required to inhibit myristoylation in IM-9, BL2 and Ramos cell lines, was determined. […]

[15] = test system: myristoylation in BL2 cells; test: as above; assay type: cell-based, human
Experimental: as §7
(§9) Subsequently, cells deprived of fatty acids were washed once with warm PBS and incubated in fresh RPMI or DMEM without any supplements. Next, the appropriate volume of 20× fatty acid-BSA conjugate in serum-free media was added to the cells, to ensure that the final concentration of BSA was 1% and Q-alkynyl myristic acid was at the indicated concentration (25 μM or 100 μM) for each respective experiment. DMSO or unlabeled fatty acids conjugated to BSA were used as controls for the experiments performed. Cells were labeled with ω-alkynyl myristic acid for 30 min at 37° C. in a 5% CO2 humidified incubator prior to harvesting. Cells were harvested in 0.1% SDS-RIPA-HEPES buffer that was supplemented with 1× complete protease inhibitor (EDTA-free).
(§10) After labeling cells with ω-alkynyl myristic acid, the resulting lysates were subjected to click chemistry with azido-biotin to enable the detection of the myristoylated proteins by ECL as described previously (Yap et al., 2010). Typically, cell lysates (30-50 μg of protein) were adjusted to contain 1% SDS and incubated with 100 μM Tris-(benzyltriazolylmethyl)amine (TBTA), 1 mM CuSO4, 1 mM Tris-carboxyethylphosphine (TCEP), and 100 μM azido-biotin at 37° C. for 30 min in darkness, in order for the click reaction to proceed. Next, 10 volumes of ice-cold acetone was added to stop the click reaction and proteins were precipitated at −20° C. overnight. Subsequently, the acetone precipitated proteins were centrifuged at 16,000 g for 10 min, resuspended in 1×SDS-PAGE sample buffer with 20 mM DTT. […]
as §8

[16] = test system: myristoylation in IM-9 cells; test: as above; assay type: cell-based, human
Experimental: as §7, §9, §10, §8

Fu plasma, mouse = assay type: in vitro ADME
B:B Ratio = assay type: in vivo; conditions: brain / blood
[17] = test system: "Normal" immortalized B lymphocytes (IM9); test: Induction of apoptosis, PARP-1 and caspase-3 cleavage by western blotting; assay type: cell-based, human; conditions: IM9, 72 h
Experimental: (§11) “Normal” immortalized B lymphocytes (IM9), KMH2 (Hodgkin's lymphoma) and BL (BL2 and Ramos) cells were incubated with increasing concentrations (nM) of DDD86481 and monitored the cleavage of poly-ADP-ribose polymerase-1 (PARP-1) and caspase-3 after the 72 h time point. Western blotting was performed on cell lysates to monitor the cleavage or PARP-1 and caspase-3 as well as the presence of GAPDH as loading control (composite gels).

BL (BL2 and Ramos) cells = test: as above; assay type: cell-based, human; conditions: BL cell lines, 72 h
Experimental: as §11

[18] = test system: KMH2 (Hodgkin's lymphoma) cells; test: as above; assay type: cell-based, human; conditions: KMH2, 72 h
Experimental: as §11

T1 sequence (P08183 whole entry): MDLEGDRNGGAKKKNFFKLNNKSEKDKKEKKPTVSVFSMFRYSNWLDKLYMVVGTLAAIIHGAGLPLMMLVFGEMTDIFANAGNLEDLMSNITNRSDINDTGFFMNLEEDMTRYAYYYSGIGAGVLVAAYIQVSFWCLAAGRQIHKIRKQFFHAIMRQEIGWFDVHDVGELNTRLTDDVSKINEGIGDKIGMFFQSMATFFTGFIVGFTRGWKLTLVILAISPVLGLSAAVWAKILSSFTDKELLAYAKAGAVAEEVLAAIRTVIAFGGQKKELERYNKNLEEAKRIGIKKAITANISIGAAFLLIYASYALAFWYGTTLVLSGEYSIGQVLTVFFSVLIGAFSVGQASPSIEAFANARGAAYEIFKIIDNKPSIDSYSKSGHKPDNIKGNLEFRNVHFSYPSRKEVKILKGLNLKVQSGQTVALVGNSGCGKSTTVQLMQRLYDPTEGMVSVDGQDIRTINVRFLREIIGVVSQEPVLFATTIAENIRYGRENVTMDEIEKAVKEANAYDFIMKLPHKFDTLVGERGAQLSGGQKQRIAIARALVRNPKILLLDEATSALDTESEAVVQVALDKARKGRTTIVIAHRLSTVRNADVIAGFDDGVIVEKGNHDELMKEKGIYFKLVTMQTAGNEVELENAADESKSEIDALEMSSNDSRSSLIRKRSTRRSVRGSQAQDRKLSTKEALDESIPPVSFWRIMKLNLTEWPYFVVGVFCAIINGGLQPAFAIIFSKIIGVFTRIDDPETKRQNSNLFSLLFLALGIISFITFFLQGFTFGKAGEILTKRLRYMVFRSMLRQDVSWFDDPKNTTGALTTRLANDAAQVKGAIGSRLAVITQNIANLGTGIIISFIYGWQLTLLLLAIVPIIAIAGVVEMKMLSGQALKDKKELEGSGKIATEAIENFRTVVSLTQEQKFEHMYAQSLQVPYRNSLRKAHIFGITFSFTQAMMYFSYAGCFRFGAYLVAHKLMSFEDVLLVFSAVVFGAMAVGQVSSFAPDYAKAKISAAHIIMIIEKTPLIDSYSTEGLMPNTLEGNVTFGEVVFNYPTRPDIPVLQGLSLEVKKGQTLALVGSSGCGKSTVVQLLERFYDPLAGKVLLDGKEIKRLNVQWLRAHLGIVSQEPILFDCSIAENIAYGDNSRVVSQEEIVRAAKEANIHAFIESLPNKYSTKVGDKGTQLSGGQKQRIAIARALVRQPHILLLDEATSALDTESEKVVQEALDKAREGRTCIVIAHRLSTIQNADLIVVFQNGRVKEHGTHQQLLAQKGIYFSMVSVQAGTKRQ
Chain of CYP450 2C19 (P33261 whole entry): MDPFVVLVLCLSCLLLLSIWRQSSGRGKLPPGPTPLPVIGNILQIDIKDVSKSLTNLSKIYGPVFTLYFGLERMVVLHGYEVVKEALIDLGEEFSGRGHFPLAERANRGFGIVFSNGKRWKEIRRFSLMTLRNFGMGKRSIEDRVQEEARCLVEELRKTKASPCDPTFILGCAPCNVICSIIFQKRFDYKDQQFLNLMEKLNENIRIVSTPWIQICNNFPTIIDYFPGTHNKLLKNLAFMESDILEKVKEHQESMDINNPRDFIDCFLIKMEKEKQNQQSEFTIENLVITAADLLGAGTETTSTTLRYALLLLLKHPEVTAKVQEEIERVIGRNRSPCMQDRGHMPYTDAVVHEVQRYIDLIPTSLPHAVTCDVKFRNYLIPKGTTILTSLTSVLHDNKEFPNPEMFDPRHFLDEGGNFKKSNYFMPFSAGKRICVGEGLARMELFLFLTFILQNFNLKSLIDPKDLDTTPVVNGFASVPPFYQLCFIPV
Chain of hERG (Q12809 whole entry): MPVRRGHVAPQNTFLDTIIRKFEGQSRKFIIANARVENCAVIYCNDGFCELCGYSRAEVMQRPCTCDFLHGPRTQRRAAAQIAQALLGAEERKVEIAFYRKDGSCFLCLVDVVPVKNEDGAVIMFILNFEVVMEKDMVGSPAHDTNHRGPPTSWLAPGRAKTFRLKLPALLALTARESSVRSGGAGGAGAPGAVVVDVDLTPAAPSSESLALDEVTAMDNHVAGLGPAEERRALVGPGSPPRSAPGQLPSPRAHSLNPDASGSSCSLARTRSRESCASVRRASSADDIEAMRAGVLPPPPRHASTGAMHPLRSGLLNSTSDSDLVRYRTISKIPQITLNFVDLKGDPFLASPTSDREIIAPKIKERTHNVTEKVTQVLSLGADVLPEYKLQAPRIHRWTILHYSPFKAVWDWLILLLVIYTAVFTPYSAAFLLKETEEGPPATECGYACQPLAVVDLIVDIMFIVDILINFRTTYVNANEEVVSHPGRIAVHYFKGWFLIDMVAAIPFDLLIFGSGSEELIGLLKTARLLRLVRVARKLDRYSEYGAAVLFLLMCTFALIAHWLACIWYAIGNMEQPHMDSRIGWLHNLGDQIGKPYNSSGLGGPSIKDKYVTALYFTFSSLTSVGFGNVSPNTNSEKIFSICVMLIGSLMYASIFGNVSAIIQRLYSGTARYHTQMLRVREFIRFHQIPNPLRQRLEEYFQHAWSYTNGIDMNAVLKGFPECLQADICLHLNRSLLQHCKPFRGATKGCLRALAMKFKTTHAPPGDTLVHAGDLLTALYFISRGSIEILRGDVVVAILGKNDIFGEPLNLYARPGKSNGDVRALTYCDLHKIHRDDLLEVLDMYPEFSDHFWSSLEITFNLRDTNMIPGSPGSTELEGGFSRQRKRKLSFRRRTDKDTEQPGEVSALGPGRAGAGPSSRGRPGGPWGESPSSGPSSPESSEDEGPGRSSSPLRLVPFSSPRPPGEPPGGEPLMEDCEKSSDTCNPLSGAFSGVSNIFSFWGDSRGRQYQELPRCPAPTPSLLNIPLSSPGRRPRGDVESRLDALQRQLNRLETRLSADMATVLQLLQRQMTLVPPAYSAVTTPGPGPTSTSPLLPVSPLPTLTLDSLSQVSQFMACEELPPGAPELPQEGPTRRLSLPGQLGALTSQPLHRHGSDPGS

Cc1nn(C)c(C)c1NS(=O)(=O)c1c(Cl)cc(-c2ccnc(N3CCNCC3)c2)cc1Cl [DDD85646]
times more sensitive than cells expressing both NMTs ([1]; BL-2 and Ramos vs immortalized "normal" B cells or KMH2, trypan blue): 15-72 times | EC50 ([1]; Homo sapiens, BL2, 72 h): 430 nM | EC50 [2]: 370 nM | EC50 [3]: 7080 nM | EC50 [4]: 29600 nM | Cli Mouse [5]: 0.6 mL/min/g | Cli Rat [6]: 0.5 mL/min/g | Cli Human [7]: 1.2 mL/min/g | CYP450 inhibition (CYP450 2C19): 2C19 (19% at 1 uM) | Papp A→B (Caco-2 permeability Papp): 4.3 ×10⁻⁶ cm/s | fraction unbound (Fu plasma, human): 0.176 | hERG (patch clamp) (hERG): 27.7 | half-life [8]: 1.3 h | Vd [8]: 0.6 L/kg | Cmax [9]: 2690 ng/mL | Tmax [9]: 0.25 h | fraction unbound (Fu Brain): 0.068 | Pgp (Pgp): YES (Efflux ratio =

Cc1c(NS(=O)(=O)c2c(Cl)cc(-c3ccnc(N4CCNCC4)c3)cc2Cl)c(CC(C)C)nn1C [DDD86481]
times more sensitive than cells expressing both NMTs ([10]; BL-2 and Ramos vs immortalized "normal" B cells or KMH2, MTS): 15-72 times | EC90 ([10]; Homo sapiens, BL2): 210 nM | EC50 ([10]; Homo sapiens, BL2, 72 h): 58 nM | EC90 ([11]; Homo sapiens, Ramos): 400 nM | EC50 ([11]; Homo sapiens, Ramos, 72 h): 42 nM | factor by which cancer cells are preferentially killed ([11]; ratios of the EC50's and EC90's, normal B cell line vs Burkitt lymphoma cell lines): > 300 fold | EC90 ([12]; IM-9, IM9 cells, calculated from FIG. 9B): 134000 nM | EC50 ([12]; IM-9 cells, 72 h, MTS): 2200 nM | EC50 [13]: 12600 nM | minimal dose at which incorporation of alkyne-myristate label decreases [14]: 50 nM | inhibition of myristoylation ([15]; BL2, 1 μM, after one hour of treatment): nearly complete inhibition of myristoylation | minimal dose at which incorporation of alkyne-myristate label decreases ([15]; BL-2, 2 h treatment): 50 nM | inhibition of myristoylation ([16]; IM-9, 1 μM, after one hour of treatment): nearly complete inhibition of myristoylation | minimal dose at which incorporation of alkyne-myristate label decreases ([16]; IM-9, 2 h treatment): 100 nM | Cli Mouse [5]: <0.5 mL/min/g | Cli Rat [6]: 1.0 mL/min/g | Cli Human [7]: 0.7 mL/min/g | fraction unbound (Fu plasma, mouse): 0.067 | half-life [8]: 1.5 h | Vd [8]: 0.4 L/kg | Cmax [9]: 11200 ng/mL | Tmax [9]: 2 h | half-life [9]: 5.7 h | Kp (B:B Ratio): 0.04 | PARP-1 and caspase-3 cleavage [17]: No PARP-1 or caspase-3 cleavage was observed | PARP-1 and caspase-3 cleavage (BL (BL2 and Ramos) cells): occurred in a dose-dependent fashion | PARP-1 cleavage [18]: observed at higher concentrations, although it was minimal

Reference: patent US20250179589A1, “SYNTHETIC LETHALITY AND THE TREATMENT OF CANCER” (PACYLEX PHARMACEUTICALS INC., priority 2012, published 2025)
